In patent US10899769B2, “Imidazopiperazinone inhibitors of transcription activating proteins” (Board of Regents, The University of Texas System, priority 2018, dated 2021):

Key:
[1] = target: GST-CBP(1081-1197) bromodomain (Homo sapiens (Human), UniProt Q92793); assay: CBP AlphaScreen Assay; conditions: binding to biotin-H4(1-21) Ac-K5/8/12/16
How it was run: (§1)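 AlphaScreen binding of GST-bromodomain to biotin-H4(1-21) Ac-K5/8/12/16: 5 nM CBP with 20 nM peptide, or 2.5 nM BRD4 with 10 nM peptide, in 50 mM HEPES 7.5, […], 1 mM TCEP, 0.003% Tween-20. Compound preincubated 30 min, then beads 2 h, room temperature. IC50 from variable-slope fit.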

[2] = target: BRD4(49-170) bromodomain (Homo sapiens (Human), UniProt O60885); assay: BRD4 AlphaScreen Assay; conditions: binding to biotin-H4(1-21) Ac-K5/8/12/16
How it was run: as §1

Chain of GST-CBP(1081-1197) bromodomain (Q92793 1081-1197): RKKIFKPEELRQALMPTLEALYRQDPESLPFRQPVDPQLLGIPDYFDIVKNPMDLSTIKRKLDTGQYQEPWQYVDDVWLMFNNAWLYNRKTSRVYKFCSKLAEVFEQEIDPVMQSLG

SMILES: CC1C(=O)N(C)Cc2c(-c3cccc4nc(-c5cnn(C)c5)c(C(F)F)cc34)nc(C3CCN(CC(F)F)CC3)n21 (centres unmarked) [Example 78, 3-(1-(2,2-difluoroethyl)piperidin-4-yl)-1-(3-(difluoromethyl)-2-(1-methyl-1H-pyrazol-4-yl)quinolin-5-yl)-5,7-dimethyl-7,8-dihydroimidazo[1,5-a] pyrazin-6(5H)-one]
- IC50 [1]: 41 nM
- IC50 [2]: 3.77 µM
